Experimental data from US9725465B2, “Biaryl acetamide compounds and methods of use thereof” (Ambit Biosciences Corporation, priority 2013, dated 2017).

Experiments:
[1] = target: FLT3 kinase (Homo sapiens (Human), UniProt P36888); assay: Competition binding assay (Kd), FLT3
[2] = target: KIT kinase (Homo sapiens (Human), UniProt P10721); assay: Competition binding assay (Kd), KIT
Description: In certain embodiments, competition binding assays were performed as described in Fabian et al., Nature Biotechnology 2005, 23, 329-336.
Competition binding assays used herein were developed, validated and performed as described in Fabian et al., Nature Biotechnology 2005, 23, 329-336. Kinases were produced as fusions to T7 phage (See, Fabian et al. or WO04/015142) or alternatively, the kinases were expressed in HEK-293 cells and subsequently tagged with DNA for PCR detection (See, WO08/005,310). […] The liganded beads were blocked with excess biotin and washed with blocking buffer (SeaBlock (Pierce), 1% BSA, 0.05% Tween 20, 1 mM DTT) to remove unbound ligand and to reduce non-specific binding. […] Test compounds were prepared as 100× stocks in DMSO and diluted into the aqueous environment. Kds were determined using an eleven point threefold serial dilutions. DMSO or control compounds were was added to control assays lacking a test compound. […] The kinase concentration in the eluates was measured by quantitative PCR. […]

Sequence of KIT kinase (P10721 26-976): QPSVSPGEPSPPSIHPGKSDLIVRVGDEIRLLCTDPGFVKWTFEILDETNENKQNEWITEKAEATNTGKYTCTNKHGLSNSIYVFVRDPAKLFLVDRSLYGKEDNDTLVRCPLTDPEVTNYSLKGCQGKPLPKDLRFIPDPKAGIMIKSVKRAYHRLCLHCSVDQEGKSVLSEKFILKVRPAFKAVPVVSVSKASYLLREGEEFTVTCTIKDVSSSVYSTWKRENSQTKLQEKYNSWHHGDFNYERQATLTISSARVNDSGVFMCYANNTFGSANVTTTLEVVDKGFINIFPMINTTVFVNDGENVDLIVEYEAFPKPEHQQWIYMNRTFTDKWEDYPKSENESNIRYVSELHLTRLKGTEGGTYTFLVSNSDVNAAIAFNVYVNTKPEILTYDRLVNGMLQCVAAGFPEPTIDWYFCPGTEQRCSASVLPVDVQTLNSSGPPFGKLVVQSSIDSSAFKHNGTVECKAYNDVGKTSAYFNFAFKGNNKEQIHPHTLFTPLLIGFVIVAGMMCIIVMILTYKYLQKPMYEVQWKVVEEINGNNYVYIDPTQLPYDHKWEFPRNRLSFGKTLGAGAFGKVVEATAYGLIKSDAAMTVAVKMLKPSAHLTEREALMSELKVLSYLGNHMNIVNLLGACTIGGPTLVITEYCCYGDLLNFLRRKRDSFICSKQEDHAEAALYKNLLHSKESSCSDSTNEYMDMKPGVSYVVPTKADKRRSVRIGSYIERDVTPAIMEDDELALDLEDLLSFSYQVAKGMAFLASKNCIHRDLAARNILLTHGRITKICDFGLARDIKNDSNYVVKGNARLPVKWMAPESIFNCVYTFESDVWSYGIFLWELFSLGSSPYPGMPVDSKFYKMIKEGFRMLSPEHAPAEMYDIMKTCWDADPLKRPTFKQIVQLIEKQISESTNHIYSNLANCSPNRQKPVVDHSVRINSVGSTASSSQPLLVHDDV
Sequence of FLT3 kinase (P36888 27-993): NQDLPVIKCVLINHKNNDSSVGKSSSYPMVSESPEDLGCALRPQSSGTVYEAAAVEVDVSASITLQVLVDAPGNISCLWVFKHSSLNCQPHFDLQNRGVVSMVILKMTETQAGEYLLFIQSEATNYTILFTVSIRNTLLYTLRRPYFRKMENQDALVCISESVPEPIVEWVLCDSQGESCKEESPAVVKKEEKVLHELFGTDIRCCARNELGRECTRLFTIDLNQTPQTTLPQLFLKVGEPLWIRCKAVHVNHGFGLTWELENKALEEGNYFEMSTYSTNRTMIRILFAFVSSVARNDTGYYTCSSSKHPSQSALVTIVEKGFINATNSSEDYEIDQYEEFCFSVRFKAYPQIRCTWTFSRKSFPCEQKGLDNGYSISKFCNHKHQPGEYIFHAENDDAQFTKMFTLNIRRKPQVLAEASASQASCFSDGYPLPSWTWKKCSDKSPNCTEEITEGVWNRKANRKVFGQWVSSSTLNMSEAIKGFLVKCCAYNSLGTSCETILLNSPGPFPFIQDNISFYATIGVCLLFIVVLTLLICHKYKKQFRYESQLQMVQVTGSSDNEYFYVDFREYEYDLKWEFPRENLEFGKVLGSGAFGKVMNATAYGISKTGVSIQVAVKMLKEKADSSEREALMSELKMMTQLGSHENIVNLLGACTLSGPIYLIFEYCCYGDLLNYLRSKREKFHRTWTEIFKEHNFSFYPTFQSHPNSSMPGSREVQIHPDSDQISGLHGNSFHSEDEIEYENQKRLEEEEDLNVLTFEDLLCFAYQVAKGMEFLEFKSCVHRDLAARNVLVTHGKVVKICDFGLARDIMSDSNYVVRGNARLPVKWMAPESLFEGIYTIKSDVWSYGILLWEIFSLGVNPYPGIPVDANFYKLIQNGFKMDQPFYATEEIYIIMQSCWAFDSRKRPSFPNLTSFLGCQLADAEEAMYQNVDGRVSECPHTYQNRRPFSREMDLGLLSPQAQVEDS

| SMILES | Kd ([1]; competition binding assay) [nM] | Kd ([2]; competition binding assay) [nM] | Kd ([1]; competition binding) [nM] | Kd ([2]; competition binding) [nM] |
| --- | --- | --- | --- | --- |
| COc1cc2ncc(-c3ccc(CC(=O)Nc4cc(C5(C(F)(F)F)CC5)n[nH]4)c(F)c3)nc2cc1OC [Example 180, 2-[4-(6,7-dimethoxyquinoxalin-2-yl)-2-fluoro-phenyl]-N-[3-[1-(trifluoromethyl)cyclo-propyl]-1H-pyrazol-5-yl]acetamide] | < 5 | < 5 |  |  |
| COc1cc2ncc(-c3ccc(CC(=O)Nc4cc(C(C)(C)C(F)(F)F)nn4C)c(F)c3)nc2cc1OC [Example 181, 2-[4-(6,7-dimethoxyquinoxalin-2-yl)-2-fluoro-phenyl]-N-[2-methyl-5-(2,2,2-trifluoro-1,1-dimethyl-ethyl)pyrazol-3-yl]acetamide] | < 5 | < 5 |  |  |
| COc1cc2ncc(-c3ccc(CC(=O)Nc4cc(C(C)(C)C(F)(F)F)n[nH]4)c(F)c3)nc2cc1OC [Example 182, 2-[4-(6,7-dimethoxyquinoxalin-2-yl)-2-fluoro-phenyl]-N-[3-(2,2,2-trifluoro-1,1-dimethyl-ethyl)-1H-pyrazol-5-yl]acetamide] | < 5 | < 5 |  |  |
| COc1cc2ncc(-c3ccc(CC(=O)Nc4cc(C(C)(C)C(F)(F)F)on4)c(F)c3)nc2cc1O [Example 184, 2-[2-fluoro-4-(7-hydroxy-6-methoxy-quinoxalin-2-yl)phenyl]-N-[5-(2,2,2-trifluoro-1,1-dimethyl-ethyl)isoxazol-3-yl]acetamide] | < 5 | < 5 |  |  |
| COc1cc2ncc(-c3ccc(CC(=O)Nc4cc(C(C)(C)C(F)(F)F)on4)c(F)c3)cc2cc1OCCN1CCOCC1 [Example 189, 2-[2-fluoro-4-[7-methoxy-6-(2-morpholinoethoxy)-3-quinolyl]phenyl]-N-[5-(2,2,2-trifluoro-1,1-dimethyl-ethyl)isoxazol-3-yl]acetamide] |  |  | < 5 | < 5 |

Second part, the molecule after the results:

| Kd ([1]; competition binding assay) [nM] | Kd ([2]; competition binding assay) [nM] | Kd ([1]; competition binding) [nM] | Kd ([2]; competition binding) [nM] | SMILES |
| --- | --- | --- | --- | --- |
| < 5 | < 5 |  |  | COc1cc2nc(-c3ccc(CC(=O)Nc4cc(C5(C(F)(F)F)CC5)on4)c(F)c3)cnc2cc1OCC#N [Example 183, 2-[4-[6-(cyanomethoxy)-7-methoxy-quinoxalin-2-yl]-2-fluoro-phenyl]-N-[5-[1-(trifluoromethyl)cyclo-propyl]isoxazol-3-yl]acetamide] |
|  |  | < 5 | < 5 | COc1cc2nc(-c3ccc(CC(=O)Nc4cc(C5(C(F)(F)F)CC5)on4)c(F)c3)cnc2cc1OCCn1cncn1 [Example 185, 2-[2-fluoro-4-[7-methoxy-6-[2-(1,2,4-triazol-1-yl)ethoxy]quinoxalin-2-yl]phenyl]-N-[5-[1-(trifluoro-methyl)cyclopropyl]isoxazol-3-yl]acetamide] |
|  |  | < 5 | < 5 | COc1cc2nc(-c3ccc(CC(=O)Nc4cc(C5(C(F)(F)F)CC5)on4)c(F)c3)cnc2cc1OCC(=O)N(C)C [Example 186, 2-[4-[6-[2-(dimethylamino)-2-oxo-ethoxy]-7-methoxy-quinoxalin-2-yl]-2-fluoro-phenyl]-N-[5-[1-(trifluoro-methyl)cyclopropyl]isoxazol-3-yl]acetamide] |
|  |  | < 5 | < 5 | COc1cc2ncc(-c3ccc(CC(=O)Nc4cc(C(C)(C)C(F)(F)F)on4)c(F)c3)nc2cc1OCCN1CCOCC1 [Example 187, 2-[2-fluoro-4-[6-methoxy-7-(2-morpholino-ethoxy)quinoxalin-2-yl]phenyl]-N-[5-(2,2,2-trifluoro-1,1-dimethyl-ethyl)isoxazol-3-yl]acetamide] |
|  |  | < 5 | < 5 | COCCOc1cc2cc(-c3ccc(CC(=O)Nc4cc(C5(C(F)(F)F)CC5)on4)c(F)c3)cnc2cc1OC [Example 188, 2-[2-fluoro-4-[7-methoxy-6-(2-methoxyethoxy)-3-quinolyl]phenyl]-N-[5-[1-(trifluoromethyl)cyclo-propyl]isoxazol-3-yl]acetamide] |
|  |  | < 5 | < 5 | COc1cc2ncc(-c3ccc(CC(=O)Nc4cc(C5(C(F)(F)F)CC5)on4)c(F)c3)cc2cc1OCCN1CCOCC1 [Example 190, 2-[2-fluoro-4-[7-methoxy-6-(2-morpholinoethoxy)-3-quinolyl]phenyl]-N-[5-[1-(trifluoromethyl)cyclo-propyl]isoxazol-3-yl]acetamide] |
